In series [1] the test system is A549. Briefly: apoptosis, Cell Death Detection ELISA, A549. It is filed as cell-based, human. The following applies: HDAC isotype-specific OSDN, 48 hour treatment. On the procedure: (§1) Briefly, human A549 and/or T24 human bladder carcinoma cells were seeded in 10 cm tissue culture dishes one day prior to oligonucleotide treatment. The cell lines were obtained from the American Type Culture Collection (ATCC) (Manassas, Va.) and were grown under the recommended culture conditions. Before the addition of the oligonucleotides, cells were washed with PBS (phosphate buffered saline). Next, lipofectin transfection reagent (GIBCO BRL Mississauga, Ontario, CA), at a concentration of 6.25 μg/ml, was added to serum free OPTIMEM medium (GIBCO BRL, Rockville, Md.), which was then added to the cells. The oligonucleotides to be screened were then added directly to the cells (i.e., one oligonucleotide per plate of cells). Mismatched oligonucleotides were used as controls. The same concentration of oligonucleotide (e.g., 50 nM) was used per plate of cells for each oligonucleotide tested.
(§2) In order to determine the effect of HDAC OSDNs on cell growth and cell death through apoptosis, A549 or T24 cells, MDAmb231 cells, and HMEC cells (ATCC, Manassas, Va.) were treated with HDAC OSDNs as previously described.
(§3) For the apoptosis study, cells were analyzed using the Cell Death Detection ELISA^Plus kit (Roche Diagnostic GmBH, Mannheim, Germany) according to the manufacturer's directions. Typically, 10,000 cells were plated in 96-well tissue culture dishes for 2 hours before harvest and lysis. Each sample was analyzed in duplicate. ELISA reading was done using a MR700 plate reader (DYNEX Technology, Ashford, Middlesex, England) at 410 nm. The reference was set at 490 nm.

Series [2] has as its system T24. Briefly: apoptosis, Cell Death Detection ELISA, T24. It is filed as cell-based, human. The following applies: HDAC isotype-specific OSDN, 48 hour treatment. On the procedure: as §1, §2, §3
A general note: In an ELISA, binding on a coated surface is turned into a signal by an enzyme label.

In series [3] the test system is MDAmb231. Briefly: apoptosis, Cell Death Detection ELISA, MDAmb231. It is filed as cell-based, human. The following applies: HDAC isotype-specific OSDN, 48 hour treatment. The protocol: as §1, §2, §3
Series [4] concerns HMEC. Briefly: apoptosis, Cell Death Detection ELISA, HMEC. It is filed as cell-based, human. The following applies: HDAC isotype-specific OSDN, 48 hour treatment. On the procedure: as §1, §2, §3
Series [5] relates to human HDAC-6 RNA. Briefly: Northern blot analysis of HDAC-6 RNA expression. It is filed as cell-based. The following applies: T24 cells, 100 nM, 24 hours. On the procedure:
Thirteen phosphorothloate ODNs containing sequences complementary to the 5′ or 3′ untranslated regions of the human HDAC-6 gene (GenBank Accession No. AJ011972) were screened as above. […] HDAC-6 MM oligo was created as a control; compared to the antisense oligo, it contains a 7-base mismatch.
as §1
(§4) Cells were harvested, and total RNAs were analyzed by Northern blot analysis. Briefly, total RNA was extracted using RNeasy miniprep columns (QIAGEN). […]

In series [6] the test system is human HDAC-6 protein. Briefly: Western blot of HDAC-6 protein expression. It is filed as cell-based. The following applies: A549 cells, 50 nM, 48 hours. The protocol: (§5) OSDN treatment conditions were as previously described.
(§6) Cells were lysed in buffer containing 1% Triton X-100, 0.5% sodium deoxycholate, 5 mM EDTA, 25 mM Tris-HCl, pH 7.5, plus protease inhibitors. Total protein was quantified by the protein assay reagent from Bio-Rad (Hercules, Calif.). 100 ug of total protein was analyzed by SDS-PAGE. Next, total protein was transferred onto a PVDF membrane and probed with various HDAC-specific primary antibodies. Rabbit anti-HDAC-1 (H-51), anti-HDAC-2 (H-54) antibodies (Santa Cruz Biotechnologies, Santa Cruz, Calif.) were used at 1:500 dilution. Rabbit anti-HDAC-3 antibody (Sigma, St. Louis, Mo.) was used at a dilution of 1:1000. Anti-HDAC-4 antibody was prepared as previously described (Wang, S. H. et al., (1999) Mol. Cell. Biol. 19:7816-27), and was used at a dilution of 1:1000. Anti-HDAC-6 antibody was raised by immunizing rabbits with a GST fusion protein containing a fragment of HDAC-6 protein (amino acid #990 to #1216, GenBank Accession No. AAD29048). Rabbit antiserum was tested and found only to react specifically to the human HDAC-6 isoform. HDAC-6 antiserum was used at 1:500 dilution in Western blots to detect HDAC-6 in total cell lysates. Horse Radish Peroxidase conjugated secondary antibody was used at a dilution of 1:5000 to detect primary antibody binding. […]

Series [7] deals with human cancer cells. Briefly: cell growth analysis and apoptosis, cancer cells. It is filed as cell-based. Conditions: various human cancer cells, 50 nM. The protocol: as §2, §3
Cells were harvested and cell numbers counted by trypan blue exclusion using a hemocytometer. Percentage of inhibition was calculated as (100-AS cell numbers/control cell numbers)%.

In series [8] the test system is human HDAC-2 RNA. Briefly: Northern blot analysis of HDAC-2 RNA expression. It is filed as cell-based. The following applies: T24 cells, 100 nM, 24 hours. The protocol:
Twenty-four phosphorothioate ODNs containing sequences complementary to the 5′ or 3′ UTR of the human HDAC-2 gene (GenBank Accession No. U31814) were screened as above. […] HDAC-2 MM was created as a control; compared to the antisense oligo, it contains a 7-base mismatch.
as §1, §4

Series [9] has as its system human HDAC-2 protein. Briefly: Western blot of HDAC-2 protein expression. It is filed as cell-based. The following applies: A549 cells, 50 nM, 48 hours. The protocol: as §5, §6
On the technique in general: A western blot detects proteins with antibodies after separation by electrophoresis.

Series [10] concerns T24 human bladder cancer cells. Briefly: inhibition of HDAC activity in whole cells (acetylated histone H-4 Western). It is filed as cell-based. The following applies: acetylated histone H-4 in T24 cells, 16 hours. The protocol: T24 human bladder cancer cells (ATCC, Manassas, Va.) growing in culture were incubated with test compounds for 16 hours. Histones were extracted from the cells by standard procedures (see e.g. Yoshida et al., supra) after the culture period. Twenty μg total core histone protein was loaded onto SDS/PAGE and transferred to nitrocellulose membranes, which were then reacted with polyclonal antibody specific for acetylated histone H-4 (Upstate Biotech Inc., Lake Placid, […].). Horse Radish Peroxidase conjugated secondary antibody was used at a dilution of 1:5000 to detect primary antibody binding. The secondary antibody binding was visualized by use of the Enhanced chemiluminescence (ECL) detection kit (Amersham-Pharmacia Biotech., Inc., Piscataway, N.J.). After exposure to film, acetylated H-4 signal was quantitated by densitometry.

Series [11] concerns human HDAC-3 mRNA. Briefly: Northern blot analysis of HDAC-3 RNA expression. Conditions: T24 cells, 100 nM, 24 hours. It is filed as cell-based. The protocol: Twenty-one phosphorothioate ODNs containing sequences complementary to the 5′ or 3′ UTR of the human HDAC-3 gene (GenBank Accession No. AF039703) were screened as above. […] HDAC-3 MM oligo was created as a control; compared to the antisense oligo, it contains a a 6-base mismatch.
as §1, §4

Series [12] deals with human HDAC-3 protein. Briefly: Western blot of HDAC-3 protein expression. It is filed as cell-based. Conditions: A549 cells, 50 nM, 48 hours. The protocol:
as §5, §6

In series [13] the test system is Human A549 cells. Briefly: cDNA array analysis of gene transcription. It is filed as cell-based. Conditions: 50 nM, two days, vs HDAC-4 mismatch oligo (MM2). On the procedure:
as §1

In series [14] the test system is human HDAC-4 mRNA. Briefly: Northern blot analysis of HDAC-4 RNA expression. It is filed as cell-based. Conditions: A549 cells, escalating doses, 24 hours. On the procedure: Human cancer A549 cells were treated with escalating doses of AS1, AS2 or MM2 oligos for 24 hours. Total RNAs were harvested for Northern analysis.
Seventeen phosphorothioate ODNs containing sequences complementary to the 5′ or 3′ UTR of the human HDAC-4 gene (GenBank Accession No. AB006626) were screened as above. […] HDAC-4 MM oligo was created as a control; compared to the antisense oligo, it contains a 6-base mismatch.
as §1
Cells were harvested, and total RNAs were analyzed by Northern blot analysis. […]

Series [15] concerns human HDAC-4 protein. Briefly: Western blot of HDAC-4 protein expression. It is filed as cell-based. The following applies: A549 cells, 48 hours. On the procedure:
Human cancer A549 cells were treated with AS1, AS2 or MM2 oligos for 48 hours. Whole cell lysates were analyzed by Western blotting using antibodies specific against human HDAC-4.
as §5
as §6, with “lysates.” for “lysates. Horse Radish Peroxidase conjugated secondary antibody was used at a dilution of 1:5000 to detect primary antibody binding.”

d = 2'-deoxy (DNA); m = 2'-O-methyl

As for “5′-CAGGCTGGAATGAGCTACAG-3′ (sugars from the 5' end m4 d12 m4, all phosphorothioate, methylation of C not given here) [HDAC-6, antisense oligo, human HDAC6 3′-UTR]”, the “Apoptosis A549” value in series [1] was “− (“−”: < = 2x fold over non-specific background)”. Besides, the “Apoptosis T24” value in [2] is recorded as “− (“−”: < = 2x fold over non-specific background)”. Besides, the “Apoptosis MDAmb231” value in series [3] is listed as “− (“−”: < = 2x fold over non-specific background)”. Besides, the “Apoptosis HMEC” value in [4] is “− (“−”: < = 2x fold over non-specific background)”. For the same compound, the “HDAC-6 RNA expression (antisense activity)” value in series [5] was “antisense activity to human HDAC-6”. The “expression of HDAC-6 protein” value in series [6] is on record as “specifically inhibits the expression of the respective HDAC isotype protein”. Besides, the “effect on cancer cell growth and apoptosis” value (from here on “effect”) in [7] is on record as “no effect on cancer cell growth or apoptosis”.

As for “5′-GCTGAGCTGTTCTGATTTGG-3′ (chemistry not given here) [HDAC-2, antisense oligo, human HDAC2 3′-UTR]”, the “Apoptosis A549” value in series [1] was “− (“−”: < = 2x fold over non-specific background)”. Further, the “Apoptosis T24” value in [2] is “− (“−”: < = 2x fold over non-specific background)”. Also, the “Apoptosis MDAmb231” value in [3] is “− (“−”: < = 2x fold over non-specific background)”. In series [4], the “Apoptosis HMEC” value is given as “− (“−”: < = 2x fold over non-specific background)”. Further, the “HDAC-2 RNA expression (antisense activity)” value in series [8] is given as “antisense activity to human HDAC-2”. The “expression of HDAC-2 protein” value in series [9] is recorded as “specifically inhibits the expression of the respective HDAC isotype protein”. Moreover, the “effect” value in [7] is reported as “minimal effect on cancer cell growth inhibition”.

Consider `Cc1ccc(S(=O)(=O)Nc2ccc(/C=C/C(=O)Nc3ccccc3N)cc2)cc1` [MG 37 63], for which, in series [10], the 4-Ac amounted to 5 µM.

In the case of “5′-CGCTTTCCTTGTCATTGACA-3′ (sugars from the 5' end m4 d12 m4, all phosphorothioate, methylation of C and T or U not given here) [HDAC-3, antisense oligo, human HDAC3 3′-UTR]”, the “Apoptosis A549” value in series [1] is given as “− (“−”: < = 2x fold over non-specific background)”. In addition, the “Apoptosis T24” value in series [2] was “− (“−”: < = 2x fold over non-specific background)”. Further, the “Apoptosis MDAmb231” value in series [3] was “− (“−”: < = 2x fold over non-specific background)”. For the same compound, the “Apoptosis HMEC” value in series [4] was “− (“−”: < = 2x fold over non-specific background)”. The “HDAC-3 RNA expression (antisense activity)” value in series [11] is reported as “antisense activity to human HDAC-3”. For the same compound, the “expression of HDAC-3 protein” value in [12] is “specifically inhibits the expression of the respective HDAC isotype protein”. Moreover, the “effect” value in [7] was “no effect on cancer cell growth or apoptosis”.

In series [10], `Nc1ccccc1NC(=O)CCCCCCC(=O)c1ccc(-c2ccccc2)cc1` [MG 36 50] came in with a 4-Ac of 10 µM.

For the compound “5-GCTGCCTGCCGTGCCCACCC-3′ (sugars from the 5' end m4 d12 m4, all phosphorothioate, methylation of C and T or U not given here) [HDAC-4 AS1, antisense oligo, human HDAC4 5′-UTR]”, in series [13], the “fold change CDK4” value was −3 fold, the “fold change Egr-1” value was 3 fold, the “fold change GADD45” value is reported as 3 fold and the “fold change GADD153” value was 6 fold. Also, in [13], the “fold change IL-15” value was 4 fold, the “fold change IRF” value was 2 fold, the “fold change Notch-4” value is listed as −3 fold and the “fold change PLK” value is listed as −4 fold. Moreover, in [13], the “fold change basic FGF” value amounted to 2 fold, the “fold change cyclin A2” value was −3 fold, the “fold change cyclin B1” value is on record as −3 fold and the “fold change p21” value was determined as 4 fold. Besides, the “fold change topo II α” value in series [13] was −5 fold. Besides, the “HDAC-4 expression at RNA level” value in [14] is recorded as “inbibit HDAC-4 expression at RNA level in a dose-dependent manner”. Moreover, the “expression of HDAC-4 protein” value in series [15] is listed as “inbibit HDAC-4 expression at protein level”.

In series [10], `CC(/C=C/C(=O)Nc1ccccc1N)=C\C(C)C(=O)c1ccc(N(C)C)cc1` (stereo not drawn) [MG 24 29] showed a 4-Ac of 1 µM.

As to “5′-TACAGTCCATGCAACCTCCA-3′ (sugars from the 5' end m4 d12 m4, all phosphorothioate, methylation of C and T or U not given here) [HDAC4 AS2, antisense oligo, human HDAC4 3′-UTR]”, the “HDAC-4 expression at RNA level” value in [14] is on record as “inbibit HDAC-4 expression at RNA level in a dose-dependent manner”. Besides, the “expression of HDAC-4 protein” value in series [15] was “inbibit HDAC-4 expression at protein level”.

Take `Nc1ccccc1NC(=O)CCCCCCC(=O)c1ccc(-c2ccccc2)nc1` [MG 38 69]: in series [10], the 4-Ac was found to be 5 µM.

Values taken from US20030152557A1, “Methods for inhibiting histone deacetylase-4” (priority 2001, published 2003).
